Some test systems named below: CCRF-CEM; SN12C; HL-60; NCI-H460; SK-MEL-5; EKVX; SNB-75; RPMI-8226; SF-539; HOP-62; IGROV-1; OVCAR-5; Malme-3M; HCT-15; OVCAR-4; U-251; SK-OV-3.
Assay in all cases: growth of human tumour cells (NCI), 48 h

The record followed here is ChEMBL document CHEMBL1201862, “PubChem BioAssay data set” (2004).

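Growth conditions: 96-well plates. Treatment: test compound, 48 hours, 5 concentrations. Analysis: linear interpolation between bracketing concentrations; unreached endpoints set to highest concentration. GI50 marks 50% less growth.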 Active and inactive are the calls of the source. Cut-off read from the data, not from the text of the source: active = GI50 up to about 1.1 µM and inactive = higher.

Turning to `N#CC(C(=O)/C(=N/N)C(C#N)c1ccc(Cl)cc1)c1ccc(Cl)cc1` (stereo not given), the GI50 with CCRF-CEM, in the assay on SN12C, in the assay with HL-60, in the assay with NCI-H460, in the assay with SK-MEL-5 and in the assay with EKVX was > 100 µM (inactive) each time. Moreover, the GI50 with SNB-75, in the assay with RPMI-8226, with SF-539, in the assay with HOP-62, in the assay on IGROV-1 and with OVCAR-5 was > 100 µM (inactive) throughout. Moreover, the GI50 is > 100 µM (inactive) in the assay on Malme-3M, above 100 µM in the assay with HCT-15, > 100 µM (inactive) in the assay with OVCAR-4 and > 100 µM (inactive) with U-251.

As for `Cc1nc2sccn2c1C(=O)NNC(N)=S`, the GI50 in the assay with CCRF-CEM, with SN12C, in the assay with HL-60, in the assay on NCI-H460, in the assay on SK-MEL-5 and in the assay with EKVX was > 100 µM (inactive) in each case. Also, the GI50 in the assay with RPMI-8226, in the assay on SF-539, in the assay with HOP-62, with IGROV-1, in the assay on OVCAR-5 and with Malme-3M was > 100 µM (inactive) throughout. Also, the GI50 in the assay with SK-OV-3 is > 100 µM (inactive); in the assay with HCT-15, above 100 µM; in the assay with U-251, > 100 µM (inactive).

Turning to `CCOc1ncnc2ccc(Cl)c(I)c12`, the GI50 is 70.6 µM (inactive) in the assay with CCRF-CEM; 67.5 µM (inactive) in the assay with SN12C; 38.8 µM (inactive) in the assay with HL-60; 80.7 µM (inactive) with NCI-H460; 59.8 µM (inactive) in the assay on SK-MEL-5; 11.2 µM (inactive) in the assay with EKVX. The GI50 in the assay with RPMI-8226 is 29.5 µM (inactive); in the assay on HOP-62 it was > 100 µM (inactive); in the assay on IGROV-1, 38.7 µM (inactive); in the assay with OVCAR-5, > 100 µM (inactive); in the assay with Malme-3M, > 100 µM (inactive); in the assay with SK-OV-3, 36.4 µM (inactive). Moreover, the GI50 in the assay on HCT-15 was above 100 µM; in the assay on OVCAR-4 it was 56.6 µM (inactive); in the assay on U-251, > 100 µM (inactive).

Take `C=C(COC(C)=O)CC(/C=C(\C)CCC=C(C)C)OC(C)=O` (stereo not given): the GI50 is 70.5 µM (inactive) in the assay on CCRF-CEM; > 100 µM (inactive) in the assay with SN12C; 74.5 µM (inactive) in the assay with HL-60; > 100 µM (inactive) with NCI-H460; > 100 µM (inactive) with SK-MEL-5; > 100 µM (inactive) with EKVX. The GI50 with SNB-75 is 50.6 µM (inactive); with RPMI-8226, > 10 µM (inactive); in the assay with SF-539, > 100 µM (inactive); in the assay on HOP-62 it was > 100 µM (inactive); with IGROV-1, > 100 µM (inactive); in the assay on OVCAR-5, > 100 µM (inactive). Also, the GI50 was > 100 µM (inactive) in the assay on SK-OV-3, above 100 µM with HCT-15, > 100 µM (inactive) in the assay with OVCAR-4 and > 100 µM (inactive) in the assay on U-251.

As for `CCOC(=N)CC(=O)c1ccccc1`, the GI50 with CCRF-CEM, in the assay with SN12C, in the assay on HL-60, in the assay on SK-MEL-5, with EKVX and in the assay on SNB-75 was > 100 µM (inactive) throughout. Moreover, the GI50 in the assay with SF-539, in the assay with HOP-62, in the assay with IGROV-1, with OVCAR-5, with Malme-3M and with SK-OV-3 was > 100 µM (inactive) throughout. Besides, the GI50 in the assay on OVCAR-4 and in the assay on U-251 was > 100 µM (inactive) throughout.

For `COC(=O)C(C(=O)C(=O)NC1=C(Cl)C(=O)c2ccccc2C1=O)c1csc(-n2nc(-c3ccccc3)cc2-c2ccccc2)n1` (stereo not given), the GI50 with CCRF-CEM was 31 µM (inactive); with SN12C it was > 100 µM (inactive); in the assay with HL-60 it was > 100 µM (inactive); in the assay on NCI-H460, > 100 µM (inactive); with EKVX, 9.66 µM (inactive); in the assay with SNB-75, 1.65 µM (inactive). Besides, the GI50 was > 100 µM (inactive) in the assay with RPMI-8226; > 100 µM (inactive) with HOP-62; > 100 µM (inactive) with IGROV-1; > 100 µM (inactive) in the assay on OVCAR-5; 19.1 µM (inactive) with Malme-3M; > 100 µM (inactive) with SK-OV-3. Besides, the values for the GI50 in the assay with HCT-15, in the assay with OVCAR-4 and in the assay with U-251 were above 100 µM, > 100 µM (inactive) and > 100 µM (inactive), respectively.

As to `CCCCCCC(C)OC(=O)/C=C(\CC(=O)OC(C)CCCCCC)C(=O)OC(C)CCCCCC` (stereo not given), the GI50 in the assay with SN12C, with HL-60, in the assay with NCI-H460, with SK-MEL-5, with EKVX and in the assay with SNB-75 was > 100 µM (inactive) each time. Further, the GI50 in the assay with RPMI-8226, with SF-539, in the assay with HOP-62, in the assay on IGROV-1, in the assay with OVCAR-5 and in the assay with Malme-3M was > 100 µM (inactive) throughout. Moreover, the GI50 in the assay on SK-OV-3 was > 100 µM (inactive); in the assay on HCT-15, above 100 µM; with OVCAR-4 it was > 100 µM (inactive); in the assay with U-251, > 100 µM (inactive).

Consider `COC12OCCN(CCO)C1=CC(=O)C1(C)N=NC(C)C12` (stereo not given), for which the GI50 in the assay with CCRF-CEM, in the assay with SN12C, in the assay with NCI-H460, with SK-MEL-5, with EKVX and in the assay on SNB-75 was > 100 µM (inactive) in each case. The GI50 was > 100 µM (inactive) with RPMI-8226; > 100 µM (inactive) in the assay on SF-539; > 100 µM (inactive) in the assay on IGROV-1; > 100 µM (inactive) with Malme-3M; > 100 µM (inactive) in the assay with SK-OV-3; above 100 µM in the assay on HCT-15. Moreover, the GI50 in the assay on U-251 was > 100 µM (inactive).

For `O=C1c2ccccc2N2Oc3ccccc3C12c1ccccc1` (stereo not given), the GI50 in the assay on CCRF-CEM, in the assay on SN12C, with HL-60, with SK-MEL-5, in the assay with EKVX and in the assay with SNB-75 was > 100 µM (inactive) throughout. Besides, the GI50 with RPMI-8226, with SF-539, in the assay with HOP-62, in the assay on IGROV-1, in the assay on Malme-3M and with SK-OV-3 was > 100 µM (inactive) each time. The GI50 is above 100 µM in the assay on HCT-15, > 100 µM (inactive) with OVCAR-4 and > 100 µM (inactive) in the assay with U-251.

As to `OC/C=C(\I)CCCOCOCc1ccccc1`, the GI50 in the assay on CCRF-CEM is 20.7 µM (inactive); in the assay with SN12C, 42.9 µM (inactive); in the assay on HL-60 it was 15.9 µM (inactive); in the assay with NCI-H460 it was 40.7 µM (inactive); in the assay with SK-MEL-5 it was 22.1 µM (inactive); with EKVX it was 36.5 µM (inactive). Further, the GI50 with SNB-75 is 53.1 µM (inactive); in the assay on RPMI-8226, 18.2 µM (inactive); with SF-539, 50.6 µM (inactive); with HOP-62, 42.5 µM (inactive); with IGROV-1, 98.2 µM (inactive); with OVCAR-5 it was 45.4 µM (inactive). The GI50 with SK-OV-3 was > 100 µM (inactive); in the assay on HCT-15 it was 38.5 µM; in the assay with OVCAR-4, 24.5 µM (inactive); in the assay with U-251, 23.4 µM (inactive).

Consider `CCCCCCCCCCCCC(Br)C(=O)NCC(N)=O` (stereo not given), for which the GI50 with CCRF-CEM is 2.45 µM (inactive); with SN12C it was 1.73 µM (inactive); in the assay with HL-60, 4.57 µM (inactive); in the assay with NCI-H460, 16 µM (inactive); in the assay on SK-MEL-5, 4.57 µM (inactive); in the assay with EKVX it was 20.6 µM (inactive). For the same compound, the GI50 in the assay with SNB-75 was 0.118 µM (active); with SF-539 it was 14.4 µM (inactive); in the assay with HOP-62, 15 µM (inactive); in the assay on IGROV-1, 9.66 µM (inactive); with OVCAR-5, 29.4 µM (inactive); in the assay on Malme-3M it was 13.2 µM (inactive). For the same compound, the GI50 with SK-OV-3 is 41.6 µM (inactive); with HCT-15 it was 8.87 µM; in the assay on OVCAR-4 it was 3.55 µM (inactive); in the assay on U-251, 11.6 µM (inactive).

On to `O=C(CC(=O)C(F)(F)F)c1csc2ccccc12`, for which the GI50 is 20.4 µM (inactive) in the assay on CCRF-CEM; 25 µM (inactive) in the assay with SN12C; > 10 µM (inactive) in the assay with HL-60; 19.1 µM (inactive) in the assay with NCI-H460; 26.9 µM (inactive) in the assay with SK-MEL-5; 33.4 µM (inactive) with EKVX. Also, the GI50 in the assay on RPMI-8226 is 24.8 µM (inactive); in the assay with SF-539, 31.6 µM (inactive); with HOP-62 it was 22.5 µM (inactive); in the assay on IGROV-1, 23.7 µM (inactive); in the assay on OVCAR-5, 53 µM (inactive); with Malme-3M, 26.4 µM (inactive). For the same compound, the GI50 in the assay on SK-OV-3 was 18 µM (inactive); in the assay with HCT-15 it was 29.2 µM; in the assay on U-251, 34.7 µM (inactive).

As for `O=c1oc2c3ccc4ccccc4c3n(CCN3CCOCC3)c2c2ccccc12`, the GI50 in the assay on CCRF-CEM is 1.48 µM (inactive); in the assay on HL-60 it was 87.9 µM (inactive); in the assay on NCI-H460 it was 0.755 µM (active); with EKVX, 14.8 µM (inactive); with SNB-75 it was 6.08 µM (inactive); in the assay on RPMI-8226 it was 46.5 µM (inactive). The GI50 in the assay on SF-539 is 3.76 µM (inactive); with HOP-62 it was 26.4 µM (inactive); in the assay on IGROV-1, > 100 µM (inactive); in the assay with Malme-3M it was > 100 µM (inactive); with SK-OV-3 it was > 100 µM (inactive); with OVCAR-4, > 100 µM (inactive).

As to `O=C1Nc2nc3ccccc3n2N=C2CCCC12` (stereo not given), the GI50 in the assay on CCRF-CEM, in the assay with SN12C, with NCI-H460, in the assay with SK-MEL-5, in the assay on EKVX and with SNB-75 was > 100 µM (inactive) in each case. For the same compound, the GI50 in the assay on RPMI-8226, with SF-539, in the assay on HOP-62, with IGROV-1, in the assay on OVCAR-5 and with Malme-3M was > 100 µM (inactive) throughout. For the same compound, the GI50 was > 100 µM (inactive) in the assay on SK-OV-3, above 100 µM in the assay with HCT-15, > 100 µM (inactive) in the assay on OVCAR-4 and > 100 µM (inactive) in the assay with U-251.
